Drawing on ChEMBL document CHEMBL3046629, “Fungicidal Activities of 2-Methoxy-2-[2-(benzylideneaminooxymethyl)phenyl]-N-methylacetamide Derivatives” (2002), this text covers Activity for 28 compounds.

Where only a bound is given, the exact number is not on record here.

Holding throughout (type): functional
The test system of assay [1] is Pseudoperonospora cubensis. Kind of assay: Fungicidal activity against Pseudoperonospora cubensis assessed as cucumber downy mildew disease control at 500 ppm foliar application 24 hr before inoculation onto the abaxial(treated) surface of leaf by preventive manner.
Assay [2] has as its system Pseudoperonospora cubensis. The assay can be described thus: Fungicidal activity against Pseudoperonospora cubensis assessed as cucumber downy mildew disease control at 500 ppm foliar application 24 hr before inoculation onto the adaxial(treated) surface of leaf by preventive manner.
The subject of assay [3] is Botrytis cinerea. The assay can be described thus: Fungicidal activity against Botryotinia fuckeliana assessed as cucumber gray mold disease control at 31.3 ppm treated on upper surface of leaf 24 hr before inoculation at 22 +/- 2 degC measured after 3 days by preventive manner.
The subject of assay [4] is Podosphaera fuliginea. Kind of assay: Fungicidal activity against Podosphaera fuliginea assessed as cucumber powdery mildew disease control at 31.3 ppm treated on upper surface of leaf 24 hr before inoculation at 23 +/- 2 degC measured after 10 days by preventive manner.
Assay [5] has as its system Botrytis cinerea. Kind of assay: Fungicidal activity against Botryotinia fuckeliana assessed as cucumber gray mold disease control at 500 ppm treated on upper surface of leaf 24 hr before inoculation at 22 +/- 2 degC measured after 3 days by preventive manner.
Assay [6] concerns Podosphaera fuliginea. Kind of assay: Fungicidal activity against Podosphaera fuliginea assessed as cucumber powdery mildew disease control at 500 ppm treated on upper surface of leaf 24 hr before inoculation at 23 +/- 2 degC measured after 10 days by preventive manner.
Assay [7] deals with Botrytis cinerea. The assay can be described thus: Fungicidal activity against Botryotinia fuckeliana assessed as cucumber gray mold disease control at 7.8 ppm treated on upper surface of leaf 24 hr before inoculation at 22 +/- 2 degC measured after 3 days by preventive manner.
Assay [8] deals with Podosphaera fuliginea. Kind of assay: Fungicidal activity against Podosphaera fuliginea assessed as cucumber powdery mildew disease control at 7.8 ppm treated on upper surface of leaf 24 hr before inoculation at 23 +/- 2 degC measured after 10 days by preventive manner.
Assay [9] deals with Pseudoperonospora cubensis. Kind of assay: Fungicidal activity against Pseudoperonospora cubensis assessed as cucumber downy mildew disease control at 31.3 ppm foliar application 24 hr before inoculation onto the abaxial(treated) surface of leaf by preventive manner.
Assay [10] concerns Pseudoperonospora cubensis. The assay can be described thus: Fungicidal activity against Pseudoperonospora cubensis assessed as cucumber downy mildew disease control at 7.8 ppm foliar application 24 hr before inoculation onto the adaxial(treated) surface of leaf by preventive manner.
Assay [11] relates to Pseudoperonospora cubensis. Kind of assay: Fungicidal activity against Pseudoperonospora cubensis assessed as cucumber downy mildew disease control at 125 ppm foliar application 24 hr before inoculation onto the abaxial(treated) surface of leaf by preventive manner.
In assay [12] the test system is Pseudoperonospora cubensis. The assay can be described thus: Fungicidal activity against Pseudoperonospora cubensis assessed as cucumber downy mildew disease control at 2 ppm foliar application 24 hr after inoculation by curative manner.
Assay [13] relates to Pseudoperonospora cubensis. Kind of assay: Fungicidal activity against Pseudoperonospora cubensis assessed as cucumber downy mildew disease control at 7.8 ppm foliar application 24 hr after inoculation by curative manner.
The test system of assay [14] is Pseudoperonospora cubensis. The assay can be described thus: Fungicidal activity against Pseudoperonospora cubensis assessed as cucumber downy mildew disease control at 31.3 ppm foliar application 24 hr after inoculation by curative manner.
For assay [15], the system named is Pseudoperonospora cubensis. The assay can be described thus: Fungicidal activity against Pseudoperonospora cubensis assessed as cucumber downy mildew disease control at 125 ppm foliar application 24 hr after inoculation by curative manner.
Assay [16] concerns Pseudoperonospora cubensis. Kind of assay: Fungicidal activity against Pseudoperonospora cubensis assessed as cucumber downy mildew disease control at 2 ppm foliar application 24 hr before inoculation onto the abaxial(treated) surface of leaf by preventive manner.
The test system of assay [17] is Pseudoperonospora cubensis. The assay can be described thus: Fungicidal activity against Pseudoperonospora cubensis assessed as cucumber downy mildew disease control at 7.8 ppm foliar application 24 hr before inoculation onto the abaxial(treated) surface of leaf by preventive manner.
For assay [18], the system named is Pseudoperonospora cubensis. Kind of assay: Fungicidal activity against Pseudoperonospora cubensis assessed as cucumber downy mildew disease control at 2 ppm foliar application 24 hr before inoculation onto the adaxial(treated) surface of leaf by preventive manner.
The subject of assay [19] is Pseudoperonospora cubensis. Kind of assay: Fungicidal activity against Pseudoperonospora cubensis assessed as cucumber downy mildew disease control at 125 ppm foliar application 24 hr before inoculation onto the adaxial(treated) surface of leaf by preventive manner.
Assay [20] deals with Pseudoperonospora cubensis. The assay can be described thus: Fungicidal activity against Pseudoperonospora cubensis assessed as cucumber downy mildew disease control at 31.3 ppm foliar application 24 hr before inoculation onto the adaxial(treated) surface of leaf by preventive manner.

Consider `CCCCOc1ccc(/C(C)=N/OCc2ccccc2C(OC)C(=O)NC)cc1` (racemic), for which the Activity in assay [1] is reported as less than 90%; in assay [2] it was 90%; with Botrytis cinerea [3], 50%; with Podosphaera fuliginea [4], 90%.
With `CNC(=O)C(OC)c1ccccc1Oc1ccccc1` (racemic), the Activity in assay [1] was less than 90%; in [2] it was less than 90%; in the assay on Botrytis cinerea [5], less than 50%; with Podosphaera fuliginea [6], less than 90%.
As to `CNC(=O)C(OC)c1ccccc1CO/N=C(\C)c1ccc(-c2ccccc2)cc1` (racemic), the Activity is given as less than 90% in [1], less than 90% in assay [2], 50% in the assay on Botrytis cinerea [7] and 90% with Podosphaera fuliginea [8].
For `CNC(=O)C(OC)c1ccccc1CO/N=C(\C)c1ccc(O)cc1` (racemic), the Activity in assay [1] is listed as less than 90%; in [2], 90%; with Botrytis cinerea [5], less than 50%; with Podosphaera fuliginea [6], less than 90%.
For `CCOc1ccc(/C(C)=N/OCc2ccccc2C(OC)C(=O)NC)cc1` (racemic), the Activity in [1] is reported as less than 90%; in assay [2], 90%; with Botrytis cinerea [3], 50%; in the assay on Podosphaera fuliginea [8] it was 90%.
With `CNC(=O)C(OC)c1ccccc1CO/N=C(\C)c1ccc(Cl)cc1Cl` (racemic), the Activity in assay [1] is less than 90%; in the assay on Botrytis cinerea [3], 50%; in the assay with Podosphaera fuliginea [4] it was 90%.
Consider `CNC(=O)C(OC)c1ccccc1CO/N=C/c1ccccc1` (racemic), for which the Activity in assay [1] is less than 90%; in assay [2], less than 90%; with Botrytis cinerea [5], 50%; in the assay on Podosphaera fuliginea [6], less than 90%.
For `CNC(=O)C(OC)c1ccccc1CO/N=C(\C)c1ccc(Cl)c(Cl)c1` (racemic), the Activity in assay [9] was 90%; in assay [10] it was 90%; in the assay on Botrytis cinerea [7] it was 50%; with Podosphaera fuliginea [8], 90%.
On to `CNC(=O)C(OC)c1ccccc1CO/N=C(\C)c1ccc(Cl)cc1` (racemic), for which the Activity in assay [1] worked out at 97%; in assay [11] it was 85%; in [12] it was 0%; in assay [13] it was 5%; in assay [14], 50%; in [15] it was 70%. Moreover, the Activity in [16] is 0%; in [9] it was 70%; in [17], 0%; in assay [18], 0%; in assay [2] it was 100%; in assay [19], 100%. In addition, the Activity in assay [20] was found to be 100%; in [10], 100%; with Botrytis cinerea [7], 50%; in the assay with Podosphaera fuliginea [8] it was 90%.
In the case of `CNC(=O)C(OC)c1ccccc1CO/N=C(\C)c1ccc(C(F)(F)F)cc1` (racemic), the Activity in assay [1] was 100%; in assay [11], 96%; in assay [12], 25%; in assay [13] it was 40%; in [14], 70%; in [15], 75%. Also, the Activity in assay [16] was 15%; in assay [9], 91%; in assay [17], 40%; in [18] it was 100%; in assay [2], 100%; in assay [19] it was 100%. Moreover, the Activity is listed as 100% in assay [20], 100% in assay [10], 50% with Botrytis cinerea [7] and 90% with Podosphaera fuliginea [8].
With `CNC(=O)C(OC)c1ccccc1CO/N=C(\C)c1cccc(C(F)(F)F)c1` (racemic), the Activity was 90% in assay [1], 90% in [10], 50% in the assay with Botrytis cinerea [7] and 90% in the assay with Podosphaera fuliginea [8].
Turning to `CNC(=O)C(OC)c1ccccc1COC(=O)c1ccccc1` (racemic), the Activity is less than 90% in assay [1], 90% in assay [2], less than 50% with Botrytis cinerea [5] and less than 90% in the assay with Podosphaera fuliginea [6].
In the case of `CNC(=O)C(OC)c1ccccc1CO/N=C(/C)c1ccc(OC)cc1` (racemic), the Activity in assay [1] is reported as less than 90%; in [2], 90%; with Botrytis cinerea [5], 50%; with Podosphaera fuliginea [6] it was 90%.
Turning to `CNC(=O)C(OC)c1ccccc1CO/N=C(\C)c1cccc(Cl)c1` (racemic), the Activity stood at 90% in assay [9], 90% in assay [10], 50% in the assay with Botrytis cinerea [7] and 90% with Podosphaera fuliginea [8].
For `CNC(=O)C(OC)c1ccccc1CO/N=C(\C)c1ccc(C)cc1` (racemic), the Activity in [1] is listed as 90%; in [10], 90%; in the assay with Botrytis cinerea [7] it was 50%; with Podosphaera fuliginea [8] it was 90%.
In the case of `CNC(=O)C(OC)c1ccccc1CO/N=C(/C)c1ccc(Cl)cc1` (racemic), the Activity in [1] is less than 90%; in assay [19], 90%; in the assay with Botrytis cinerea [5] it was 50%; in the assay with Podosphaera fuliginea [4], 90%.
With `CNC(=O)C(OC)c1ccccc1CO/N=C(/C)c1ccc(C(F)(F)F)cc1` (racemic), the Activity in assay [1] is on record as less than 90%; in assay [19], 90%; with Botrytis cinerea [5] it was 50%; in the assay on Podosphaera fuliginea [8], 90%.
Consider `CC/C(=N\OCc1ccccc1C(OC)C(=O)NC)c1ccc(Cl)cc1` (racemic), for which the Activity in assay [17] is recorded as 90%; in [10], 90%; with Botrytis cinerea [7] it was 50%; in the assay with Podosphaera fuliginea [8], 90%.
For `CNC(=O)C(OC)c1ccccc1CO/N=C(\C)c1cc(C)ccc1C` (racemic), the Activity is reported as less than 90% in assay [1], 90% in assay [2], less than 50% with Botrytis cinerea [5] and 90% in the assay on Podosphaera fuliginea [6].
As to `CCc1ccc(/C(C)=N/OCc2ccccc2C(OC)C(=O)NC)cc1` (racemic), the Activity in assay [1] is recorded as 90%; in assay [10], 90%; in the assay with Botrytis cinerea [7], 50%; in the assay on Podosphaera fuliginea [8], 90%.
In the case of `CNC(=O)C(OC)c1ccccc1CO/N=C(\C)c1ccccc1C(F)(F)F` (racemic), the Activity is recorded as less than 90% in assay [1], less than 90% in assay [2], less than 50% in the assay on Botrytis cinerea [5] and 90% with Podosphaera fuliginea [6].
For the compound `CNC(=O)C(OC)c1ccccc1CO/N=C(\C)c1ccc(C(C)(C)C)cc1` (racemic), the Activity in assay [1] was less than 90%; in [2] it was 90%; in the assay with Botrytis cinerea [3], 50%; with Podosphaera fuliginea [8], 90%.
As to `CNC(=O)C(OC)c1ccccc1CO/N=C(\C)c1ccc(Br)cc1` (racemic), the Activity in assay [9] is on record as 90%; in [10] it was 90%; in the assay with Botrytis cinerea [7] it was 50%; with Podosphaera fuliginea [8], 90%.
With `CNC(=O)C(OC)c1ccccc1CO/N=C(\C)c1cc(C)cc(C)c1C` (racemic), the Activity in assay [1] is less than 90%; in [2], 90%; in the assay on Botrytis cinerea [5], 50%; in the assay with Podosphaera fuliginea [8] it was 90%.
As to `CNC(=O)C(OC)c1ccccc1COCc1ccccc1` (racemic), the Activity in [1] is less than 90%; in assay [2], 90%; in the assay with Botrytis cinerea [5], less than 50%; in the assay with Podosphaera fuliginea [6], less than 90%.
Take `CNC(=O)C(OC)c1ccccc1CO/N=C(\C)c1ccc(C)c(C)c1` (racemic): the Activity was 90% in assay [11], 90% in assay [10], 50% with Botrytis cinerea [3] and 90% in the assay with Podosphaera fuliginea [8].
On to `CNC(=O)C(OC)c1ccccc1CO/N=C(\C)c1ccccc1Cl` (racemic), for which the Activity in [1] is recorded as less than 90%; in assay [2], 90%; in the assay on Botrytis cinerea [5], 50%; with Podosphaera fuliginea [6], 90%.
Turning to `CNC(=O)C(OC)c1ccccc1CO/N=C(\C)c1ccc(F)cc1` (racemic), the Activity in [9] amounted to 90%; in assay [20], 90%; in the assay on Botrytis cinerea [3], 50%; with Podosphaera fuliginea [8], 90%.
